Results taken from patent US20200190073A1, “SUBSTITUTED SUCCINIMIDE DERIVATIVES AS PESTICIDES” (BASF SE, priority 2017, published 2020).
Read-outs that look alike come from different tables or passages of the source.

Assays:
Assay type in all cases: in vivo
[1] = test system: Rice Green Leafhopper (Nephotettix virescens); test: B.8 Rice green leafhopper, sprayed rice seedlings; conditions: 72 h, read-out: mortality in comparison with untreated controls
Experimental: B.8 Rice Green Leafhopper (Nephotettix virescens)
(§1) Rice seedlings were cleaned and washed 24 hours before spraying. The active compounds were formulated in 1:1 acetone:water (vol:vol), and 0.01% vol/vol surfactant (Kinetic HV) was added. Potted rice seedlings were sprayed with 5-6 ml test solution, air dried, covered with Mylar cages and inoculated with 10 adults. Treated rice plants were kept at about 28-29° C. and relative humidity of about 50-60%. Percent mortality was recorded after 72 hours.

[2] = test system: Orchid Thrips (Dichromothrips Corbetti); test: B.7 Orchid thrips, floral immersion; conditions: Thrips, 72 h, read-out: mortality in comparison with untreated controls
Experimental: B.7 Orchid Thrips (Dichromothrips Corbetti)
Dichromothrips corbetti adults used for bioassay were obtained from a colony maintained continuously under laboratory conditions. For testing purposes, the test compound is diluted in a 1:1 mixture of acetone:water (vol:vol), plus Kinetic HV at a rate of 0.01% v/v.
Thrips potency of each compound was evaluated by using a floral-immersion technique. All petals of individual, intact orchid flowers were dipped into treatment solution and allowed to dry in Petri dishes. Treated petals were placed into individual re-sealable plastic along with about 20 adult thrips. All test arenas were held under continuous light and a temperature of about 28° C. for duration of the assay. After 3 days, the numbers of live thrips were counted on each petal. The percent mortality was recorded 72 hours after treatment.

[3] = test system: Diamond back moth (Plutella xylostella); test: CE.6 Diamond back moth, contact activity, comparative test; conditions: read-out: % mortality in comparison to untreated controls
Experimental: (§2) The tables show % mortality in comparison to untreated controls.
CE.6 Diamond Back Moth (Plutella xylostella)
Ten third-instar larvae are sprayed with 1 ml test solution and introduce to untreated leaves held petri dished lined with moist filter paper. Mortality is recorded 24, 72, and 120 hours after treatment.

[4] = test system: Boll Weevil (Anthonomus grandis); test: B.5 Boll weevil, insect diet with eggs; conditions: 120 h, read-out: mortality in comparison with untreated controls
Experimental: B.5 Boll Weevil (Anthonomus grandis)
For evaluating control of boll weevil (Anthonomus grandis) the test unit consisted of 96-well-microtiter plates containing an insect diet and 5-10 A. grandis eggs.
The compounds were formulated using a solution containing 75% v/v water and 25% v/v DMSO. Different concentrations of formulated compounds were sprayed onto the insect diet at 5 μl, using a custom built micro atomizer, at two replications.
After application, microtiter plates were incubated at about 25±1° C. and about 75±5% relative humidity for 5 days. Egg and larval mortality was then visually assessed.

[5] = test system: Green Soldier Stink Bug (Nezara viridula); test: B.11 Green soldier stink bug, sprayed soybean pods; conditions: 120 h, read-out: mortality in comparison with untreated controls
Experimental: B.11 Green Soldier Stink Bug (Nezara viridula)
The active compound was dissolved at the desired concentration in a mixture of 1:1 (vol:vol) distilled water:acetone. Surfactant (Kinetic HV) was added at a rate of 0.01% (vol/vol). The test solution was prepared at the day of use. Soybean pods were placed in glass Petri dishes lined with moist filter paper and inoculated with ten late 3rd instar N. viridula. Using a hand atomizer, approximately 2 ml solution is sprayed into each Petri dish. Assay arenas were kept at about 25° C. Percent mortality was recorded after 5 days.

[6] = test system: Vetch Aphid (Megoura viciae); test: B.3 Vetch aphid, broad bean leaf disks; conditions: foliar, 120 h, read-out: mortality in comparison with untreated controls
Experimental: B.3 Vetch Aphid (Megoura viciae)
For evaluating control of vetch aphid (Megoura viciae) through contact or systemic means the test unit consisted of 24-well-microtiter plates containing broad bean leaf disks.
The compounds were formulated using a solution containing 75% v/v water and 25% v/v DMSO. Different concentrations of formulated compounds were sprayed onto the leaf disks at 2.5 μl, using a custom built micro atomizer, at two replications.
After application, the leaf disks were air-dried and 5-8 adult aphids placed on the leaf disks inside the microtiter plate wells. The aphids were then allowed to suck on the treated leaf disks and incubated at about 23±1° C. and about 50±5% relative humidity for 5 days. Aphid mortality and fecundity was then visually assessed.

[7] = test system: Red Spider Mite (Tetranychus kanzawai); test: B.9 Red spider mite, sprayed cowpea beans; conditions: 72 h, read-out: mortality in comparison with untreated controls
Experimental: B.9 Red Spider Mite (Tetranychus kanzawai)
The active compound was dissolved at the desired concentration in a mixture of 1:1 (vol:vol) distilled water:acetone. Add surfactant (Kinetic HV) was added at a rate of 0.01% (vol/vol).The test solution was prepared at the day of use.
Potted cowpea beans of 4-5 days of age were cleaned with tap water and sprayed with 1-2 ml of the test solution using air driven hand atomizer. The treated plants were allowed to air dry and afterwards inoculated with 30 or more mites by clipping a cassava leaf section from rearing population. Treated plants were placed inside a holding room at about 25-27° C. and about 50-60% relative humidity. Percent mortality was assessed 72 hours after treatment.

[8] = test system: Diamond back moth (Plutella xylostella); test: B.1 Diamond back moth, cabbage leaf dip; conditions: foliar, 72 h, read-out: mortality in comparison with untreated controls
Experimental: B.1 Diamond back moth (Plutella xylostella)
The active compound was dissolved at the desired concentration in a mixture of 1:1 (vol:vol) distilled water:acetone. Surfactant (Kinetic HV) was added at a rate of 0.01% (vol/vol). The test solution was prepared at the day of use.
Leaves of cabbage were dipped in test solution and air-dried. Treated leaves were placed in petri dishes lined with moist filter paper and inoculated with ten 3rd instar larvae. Mortality was recorded 72 hours after treatment. Feeding damages were also recorded using a scale of 0-100%.

[9] = test system: Green Peach Aphid (Myzus persicae); test: B.2 Green peach aphid, artificial diet, systemic; conditions: 72 h, read-out: mortality in comparison with untreated controls
Excerpt: B.2 Green Peach Aphid (Myzus persicae)
For evaluating control of green peach aphid (Myzus persicae) through systemic means the test unit consisted of 96-well-microtiter plates containing liquid artificial diet under an artificial mem brane.
The compounds were formulated using a solution containing 75% v/v water and 25% v/v DMSO. Different concentrations of formulated compounds were pipetted into the aphid diet, using a custom built pipetter, at two replications.
After application, 5-8 adult aphids were placed on the artificial membrane inside the microtiter plate wells. The aphids were then allowed to suck on the treated aphid diet and incubated at about 23±1° C. and about 50±5% relative humidity for 3 days. Aphid mortality and fecundity was then visually assessed.

[10] = test system: Tobacco Budworm (Heliothis virescens); test: B.4 Tobacco budworm, insect diet with eggs; conditions: 120 h, read-out: mortality in comparison with untreated controls
Experimental: B.4 Tobacco Budworm (Heliothis virescens)
For evaluating control of tobacco budworm (Heliothis virescens) the test unit consisted of 96-well-microtiter plates containing an insect diet and 15-25 H. virescens eggs.
The compounds were formulated using a solution containing 75% v/v water and 25% v/v DMSO. Different concentrations of formulated compounds were sprayed onto the insect diet at 10 μl, using a custom built micro atomizer, at two replications.
After application, microtiter plates were incubated at about 28±1° C. and about 80±5% relative humidity for 5 days. Egg and larval mortality was then visually assessed.

[11] = test system: Rice Green Leafhopper (Nephotettix virescens); test: CE.5 Rice green leafhopper, comparative test; conditions: read-out: % mortality in comparison to untreated controls
Experimental: as §2
CE.5 Rice Green Leafhopper (Nephotettix virescens)
as §1, with “50:50” for “1:1”, “0.1%” for “0.01%”, “(EL 620)” for “(Kinetic HV)”, “5” for “5-6”, “placed in” for “covered with Mylar”

[12] = test system: Cowpea Aphid (Aphis Craccivora); test: CE.1 Cowpea aphid, comparative test; conditions: read-out: % mortality in comparison to untreated controls; for mortality at 300 ppm: sprayed cowpea plants
Experimental: as §2
CE.1 Cowpea Aphid (Aphis Craccivora)
Potted cowpea plants colonized with approximately 100-150 aphids of various stages were sprayed after the pest population has been recorded. Population reduction was assessed after 24, 72, and 120 hours.

[13] = test system: Neotropical Brown Stink Bug (Euschistus heros); test: B.12 Neotropical brown stink bug, dipped pole bean; conditions: 120 h, read-out: mortality in comparison with untreated controls
Experimental: B.12 Neotropical Brown Stink Bug (Euschistus heros)
For evaluating control of Euschistus heros through contact the test unit consisted of 100 ml disposable plastic beakers with transparent lids.
The compounds were formulated using a solution containing 50% water and 50% acetone. 50 ml of different concentrations of formulated compounds or mixtures were prepared in a glass petri dish and used for dipping three 6 cm sections of fresh pole bean. Each treatment was replicated eight times.
After application, the pole bean sections were air-dried and 5 adult E. heros placed in each beaker. The E. heros were then allowed to suck on the treated pole bean sections and incubated at 23±1° C., 50±5% RH for 5 days. E. heros mortality was then visually assessed.

[14] = test system: Rice Brown Plant Hopper (Nilaparvata lugens); test: CE.2 Rice brown plant hopper, comparative test; conditions: 10 ppm, after 72 hours, read-out: % mortality in comparison to untreated controls
Experimental: as §2
CE.2 Rice Brown Plant Hopper (Nilaparvata lugens)
as §1, with “50:50” for “1:1”, “(vol:vol)” for “(vol:vol),”, “0.1%” for “0.01%”, “(EL 620)” for “(Kinetic HV)”, “5” for “5-6”, “placed in” for “covered with Mylar”

[15] = test system: Orchid Thrips (Dichromothrips Corbetti); test: CE.3 Orchid thrips, comparative test; conditions: 96 h, 10 ppm, after 4 days, read-out: % mortality in comparison to untreated controls
Experimental: as §2
CE.3 Orchid Thrips (Dichromothrips Corbetti)
Dichromothrips corbetti adults used for bioassay were obtained from a colony maintained continuously under laboratory conditions. For testing purposes, the test compound was diluted to a concentration of 300 ppm (wt compound: vol diluent) in a 1:1 mixture of acetone:water (vol:vol), plus 0.01% vol/vol Kinetic® surfactant.
Thrips potency of each compound was evaluated by using a floral-immersion technique. Plastic petri dishes were used as test arenas. All petals of individual, intact orchid flowers were dipped into treatment solution and allowed to dry. Treated flowers were placed into individual petri dishes along with 10-15 adult thrips. The petri dishes were then covered with lids. All test arenas were held under continuous light and a temperature of about 280C for duration of the assay. After 4 days, the numbers of live thrips were counted on each flower, and along inner walls of each petri dish. The level of thrips mortality was extrapolated from pre-treatment thrips numbers.

With `CCN1C(=O)C[C@@H](NC(=O)c2ccc(C3=NO[C@@](c4cc(Cl)c(F)c(Cl)c4)(C(F)(F)F)C3)cc2Cl)C1=O` [Compound I-1-21] the mortality at 300 ppm [1] was > 75%, the mortality at 300 ppm [2] was > 75% and the mortality at 0.1 ppm [3] was 97%. For the same molecule, the mortality at 2500 ppm [4] was > 75%, the mortality at 300 ppm [5] was > 75% and the mortality at 2500 ppm [6] was > 75%. For the same molecule, the mortality at 300 ppm [7] was > 75%, the mortality at 300 ppm [8] was > 75% and the mortality at 2500 ppm [9] was > 75%. For the same molecule, the mortality at 2500 ppm [10] was > 75%.
For `Cc1cc(C2=NOC(c3cc(Cl)c(F)c(Cl)c3)(C(F)(F)F)C2)ccc1C(=O)N[C@@H]1CC(=O)N(C)C1=O` (stereo partly shown) [Compound I-1-27], the mortality at 300 ppm [1] was > 75%, the mortality at 300 ppm [2] was > 75% and the mortality at 0.1 ppm [3] was 100%. For the same molecule, the mortality at 2500 ppm [4] was > 75%, the mortality at 300 ppm [5] was > 75% and the mortality at 3 ppm ([11]; 72 h) was 83%. The mortality at 2500 ppm [6] was > 75%, the mortality at 300 ppm [7] was > 75% and the mortality at 300 ppm [8] was > 75%. The mortality at 2500 ppm [9] was > 75%, the mortality at 10 ppm [12] was 93% and the mortality at 2500 ppm [10] was > 75%.
For `Cc1cc(C2=NOC(c3cc(Cl)cc(Cl)c3)(C(F)(F)F)C2)ccc1C(=O)N[C@@H]1CC(=O)N(C)C1=O` (stereo partly shown) [Compound I-1-28], the mortality at 300 ppm [1] was > 75%, the mortality at 300 ppm [2] was > 75% and the mortality at 2500 ppm [4] was > 75%. For the same molecule, the mortality at 300 ppm [5] was > 75%, the mortality at 3 ppm ([11]; 72 h) was 79% and the mortality at 2500 ppm [6] was > 75%. For the same molecule, the mortality at 300 ppm [7] was > 75%, the mortality at 300 ppm [8] was > 75% and the mortality at 2500 ppm [9] was > 75%. The mortality at 10 ppm [12] was 50%, the mortality at 500 ppm [13] was > 75% and the mortality at 2500 ppm [10] was > 75%.
`Cc1cc(C2=NSC(c3cc(Cl)cc(Cl)c3)(C(F)(F)F)C2)ccc1C(=O)NC1CCN(CC(F)(F)F)C1=O` (stereo not shown) [No. 2-195 of WO 2013/092943, reference compound] gave a mortality at 10 ppm [14] of 25%, a mortality at 3 ppm ([11]; 3 ppm, after 72 hours) of 0% and a mortality at 300 ppm [12] of 0%. For the same molecule, the mortality at 10 ppm [15] was 0%.
`Cc1cc(C2=NSC(c3cc(Cl)cc(Cl)c3)(C(F)(F)F)C2)ccc1C(=O)NC1CCN(C)C1=O` (stereo not shown) [No. 2-201 of WO 2013/092943] was tested, and the mortality at 10 ppm [14] was 0%, the mortality at 3 ppm ([11]; 3 ppm, after 72 hours) was 0% and the mortality at 300 ppm [12] was 0%.
In the case of `CN1CCC(NC(=O)c2ccc(C3=NOC(c4cc(Cl)c(F)c(Cl)c4)(C(F)(F)F)C3)c3c2CCC3)C1=O` (stereo not shown) [Tab. 126, A-9 of WO 2015128358, reference compound], the mortality at 0.1 ppm [3] was 0%.
`CCN1CCC(NC(=O)c2ccc(C3=NOC(c4cc(Cl)c(F)c(Cl)c4)(C(F)(F)F)C3)c3c2CCC3)C1=O` (stereo not shown) [Tab. 127, A-9 of WO 2015128358, reference compound] showed a mortality at 0.1 ppm [3] of 0%.
